Data as given in PubChem BioAssay (NCI).
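Exposure lasted 48 hours, with cells grown in 96-well plates and compounds tested at five concentrations. TGI is the concentration that stops growth completely.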

How the values were obtained:
Test in all cases: NCI anticancer screen, dose series, 48 h
DU-145 prostate = system: DU-145 prostate
NCI-H226 lung = system: NCI-H226 lung
SF-539 CNS = system: SF-539 CNS
DLD-1 colon = system: DLD-1 colon
DMS 114 small cell lung = system: DMS 114 small cell lung
DMS 273 small cell lung = system: DMS 273 small cell lung
KM20L2 colon = system: KM20L2 colon
LXFL 529 NSCLC = system: LXFL 529 NSCLC
M19-MEL melanoma = system: M19-MEL melanoma
SNB-78 CNS = system: SNB-78 CNS
XF 498 CNS = system: XF 498 CNS

| SMILES | TGI (DU-145 prostate) [µM] | TGI (NCI-H226 lung) [µM] | TGI (SF-539 CNS) [µM] | further results |
| --- | --- | --- | --- | --- |
| CC(=O)O[C@H]1C(=O)[C@@]2(C)[C@H]([C@H](OC(=O)c3ccccc3)[C@]3(O)C[C@H](OC(=O)[C@H](O)[C@@H](NC(=O)c4ccccc4)c4cccc(N(C)C)c4)C(C)=C1C3(C)C)[C@]1(OC(C)=O)CO[C@@H]1C[C@@H]2O | 1.58 | 29 | 1.08 | – |
| O=C1CSC(c2ccc([N+](=O)[O-])cc2)N1c1ccc(-c2ccc(-n3c(-c4ccccc4)nc4ccccc4c3=O)cc2)cc1 (centres undefined) | > 100 | > 100 | > 100 | – |
| O=c1[nH]nc(Cc2ccccc2)n1/N=C/c1cccnc1 | > 100 | > 100 | > 100 | – |
| Cc1cc(Nc2ccc(NS(C)(=O)=O)cc2)c2c(ccc3nccc32)[nH]1 | 40.1 | 41.9 | – | – |
| O=C(C/C(=N/O)C(F)(F)F)c1cccs1 | > 100 | > 100 | > 100 | – |
| CCN(CC)CCn1c(=O)c2c(C)c3oc4ccccc4oc3c(C)c2c1=O | – | > 100 | > 100 | – |
| CCCCc1ccc(Nc2nc(Cl)c3ccn(C4CC(Oc5ccc(C)cc5)C(COc5ccc(C)cc5)O4)c3n2)cc1 (centres undefined) | > 46.4 | > 46.4 | > 46.4 | – |
| CCCCc1ccc(Nc2nc(Cl)c3c(ncn3C3CC(Oc4ccc(C)cc4)C(COc4ccc(C)cc4)O3)n2)cc1 (centres undefined) | > 100 | > 100 | > 100 | – |
| COC(=O)C1=C(C(=O)OC)C(N(C)C)C(C(=O)OC)=C(C(=O)OC)S1 | > 100 | > 100 | – | – |
| CCC(CC)(CO)CNc1cc(Cl)nc(N)n1 | > 100 | > 100 | > 100 | – |
| C=CC(=O)N1C/C(=C\c2ccc([N+](=O)[O-])cc2)C(=O)/C(=C/c2ccc([N+](=O)[O-])cc2)C1 | 2.36 | 1.05 | 0.151 | – |
| CC1(C)C2CCC1C(=O)[C@@]1(C=CC(=O)CC1)C2 (some centres undefined) | > 100 | > 100 | > 100 | – |
| CC(=O)O[C@H]1C[C@@H](OC(C)=O)[C@@](C)(O)[C@@H]2[C@@H](OC(C)=O)[C@@]3(O)[C@H](/C=C(/CO)[C@H]4O[C@H]4[C@@H](OC(C)=O)[C@@]12C)OC(=O)[C@@H]3C | 12 | > 25 | – | – |
| COc1cc(Cc2cnc(N)nc2N)cc(OC)c1OCCCNc1ccc([N+](=O)[O-])cc1 | 30.2 | 28.4 | 26.1 | – |
| C=CCN1/C(=C2\SC(=S)N(c3ccc(C)cc3)C2=O)Sc2c1ncn(C)c2=O | – | > 100 | > 100 | TGI (DLD-1 colon): > 100 µM; TGI (DMS 114 small cell lung): > 100 µM; TGI (DMS 273 small cell lung): > 100 µM; TGI (KM20L2 colon): > 100 µM; TGI (LXFL 529 NSCLC): > 100 µM; TGI (M19-MEL melanoma): > 100 µM; TGI (SNB-78 CNS): > 100 µM; TGI (XF 498 CNS): > 100 µM |
| COC(=O)c1c2c(cc3c1CC1(Cc4cc5c(c(C(C)=O)c4C1)CCCC5)C3)CCCC2 (centres undefined) | – | > 100 | > 100 | – |
| Cc1cc(S(=O)(=O)Nc2nncn2-c2ccc(Cl)cc2)c(S)cc1Cl | > 10 | > 10 | > 10 | – |
| COC(=O)C1=C(O)CCCC(C2CCCCC(=O)C2C(=O)OC)=C1 (centres undefined) | > 100 | > 100 | > 100 | – |
| COc1ccc2c(c1)NC1(CCN(CCCC(=O)c3ccc(F)cc3)CC1)N=N2 | 46.8 | 95.6 | 35.9 | – |

| SMILES | TGI (DU-145 prostate) [µM] | TGI (NCI-H226 lung) [µM] | TGI (SF-539 CNS) [µM] | further results |
| --- | --- | --- | --- | --- |
| O=C(c1cccs1)N1CCCN(C(=O)c2cccs2)C1=S | > 100 | > 100 | > 100 | – |
| Cc1c(Cl)cccc1N=NC(=O)NNc1cccc(Cl)c1C | 28.3 | 32.6 | – | – |
| O=[N+]([O-])c1cc(F)ccc1S(=O)(=O)c1ccccc1 | > 10 | > 10 | > 10 | – |
| C#C[C@@]1(O)CCCC2=CC3(CC[C@]21C)SCCS3 | > 100 | > 100 | > 100 | – |
| O=C(CN1CCCCC1)Nc1ccc2c(c1)C1Oc3ccccc3CC1CO2 (centres undefined) | > 100 | 55.8 | 36 | – |
| O=[N+]([O-])c1cc2ccc(N(CCO)CCO)nc2nc1N(CCO)CCO | > 100 | > 100 | > 100 | – |
| CC(=O)C(C(C)=O)[C@@H]1OC(C)(C)O[C@@H]1[C@H]1COC(C)(C)O1 | > 100 | > 100 | > 100 | – |
| Cn1c2ccccc2c2cc(N3CCCC3)c3c(c21)C(=O)N(c1ccccc1)C3=O | > 100 | > 100 | – | – |
| Cc1c(C)c(C)c(-n2c(=O)n(C)c(=O)n2-c2cc(C(C)(C)C)cc(C(C)(C)C)c2O)c(C)c1C | 25.9 | 22.1 | 24.3 | – |
| CCOC(=O)C(=CNC(=S)N=Nc1c(O)[nH]c2ccccc12)C(=O)OCC | > 100 | > 100 | > 100 | – |
| COc1cccc2cc(C(=O)Nc3ccccc3)c(=N)oc12 | > 100 | > 100 | > 100 | – |
| COC1=C(Cl)C(=O)c2c(O)ccc(O)c2C1=O | 6.83 | 26.1 | 1.53 | – |
| O=C(O)c1c2c(cc3c1CC1(Cc4cc5c(cc4C1=O)CCC5)C3)CCC2 (centres undefined) | > 100 | > 100 | > 100 | – |
| C/C=C(\C)C(=O)O[C@@H]1CC(C)(C)CC2C3=CCC4[C@]56CC[C@](O)(OC5)C(C)(C)C6CC[C@@]4(C)C3(C)CC[C@]21C(=O)O (some centres undefined) | > 100 | > 100 | > 100 | – |
| COC(=O)[C@]1(c2cc3ccccc3[nH]2)CC2CN(C(=O)OCc3ccccc3)C1CC2=O (some centres undefined) | > 100 | 63.4 | > 100 | – |
| O=[N+]([O-])/C=C(\CS(=O)(=O)c1ccccc1)c1ccc2c(c1)OCO2 | > 100 | 84.5 | > 100 | – |
| CN(C)CCOc1ccc(-c2c(Oc3ccccc3)c(=O)oc3ccccc23)cc1 | 29.3 | 31.6 | 27.9 | – |
| c1ccc(Nc2nn3c(CCCCCCCCc4nnc5sc(Nc6ccccc6)nn45)nnc3s2)cc1 | > 100 | > 100 | > 100 | – |
| CN1CCc2c(sc3ncn(Nc4ccc(Cl)cc4)c(=N)c23)C1 | > 100 | > 100 | > 100 | – |
